In US20150297782A1, “NITRIC OXIDE-RELEASING DRESSINGS” (priority 2008, published 2015):

Key:
[1] = humans, delivery to an infection site; cited from earlier work
[2] = Effect of varying oxygen concentrations on efficacy of 1000 ppm NO exposure; format: cell-based
From the text: Prior art devices for delivering NO to treat wounds have required a closed environment. […] The oxygen may be environmental oxygen or may be delivered via an oxygen generating component within the dressing or apparatus.
The effect of various oxygen concentration levels on the efficacy of 1000 ppm treatment of NO was studied.

bacterial burden = conditions: "It has been shown", no test described; cited from earlier work

What does the source list for `[N]=O` [NO, Nitric oxide]?
side-effects [1]: does not have significant side-effects; CFU/mL ([2]; 0% Oxygen, 2 hour): 100,000 CFU/mL; CFU/mL ([2]; 0% Oxygen, 4 hour): 100,000 CFU/mL; CFU/mL ([2]; 14.5% Oxygen, 2 hour): 2730 CFU/mL; CFU/mL ([2]; 14.5% Oxygen, 3 hour): 78 CFU/mL; CFU/mL ([2]; 14.5% Oxygen, 4 hour): 0 CFU/mL; CFU/mL ([2]; 21% Oxygen, 1 hour): 100,000 CFU/mL; CFU/mL ([2]; 21% Oxygen, 2 hour): 10,000 CFU/mL; CFU/mL ([2]; 21% Oxygen, 3 hour): 0 CFU/mL; CFU/mL ([2]; 21% Oxygen, 4 hour): 0 CFU/mL; reduction of the bacterial burden (bacterial burden): 5-6 log10 cfu/mL
